In ChEMBL document CHEMBL3885881, “DrugMatrix”:

Species: Rattus norvegicus
Assay: DrugMatrix - Regimen: Daily Repeat
Type: toxicity, organism-based, Sprague-Dawley
Set-up: regimen Daily Repeat, gender Male, age 6-8 weeks
Conditions: in vivo, po, route oral GAVAGE, […]; for ABSOLUTE BASOPHIL / ABSOLUTE EOSINOPHIL / ABSOLUTE LYMPHOCYTE / ABSOLUTE MONOCYTE / ABSOLUTE SEGMENTED NEUTROPHIL / BASOPHIL / EOSINOPHIL / ERYTHROCYTE COUNT / HEMATOCRIT / HEMOGLOBIN / LEUKOCYTE COUNT / LYMPHOCYTE / MEAN CORPUSCULAR HEMOGLOBIN / MEAN CORPUSCULAR HEMOGLOBIN CONCENTRATION / MEAN CORPUSCULAR VOLUME / MONOCYTE / NEUTROPHIL / NUCLEATED RED BLOOD CELLS / PLATELET COUNT: tissue Blood; for ALANINE AMINOTRANSFERASE / ALBUMIN / ALKALINE PHOSPHATASE / ASPARTATE AMINOTRANSFERASE / BLOOD UREA NITROGEN / CARBON DIOXIDE / CHLORIDE / CHOLESTEROL / CREATINE PHOSPHOKINASE / CREATININE / GLUCOSE / LACTATE DEHYDROGENASE / LIPASE / PHOSPHORUS / POTASSIUM / SODIUM / TOTAL BILIRUBIN / TOTAL PROTEIN / URIC ACID: tissue Plasma
[1] = 0 mg/kg, 72 h, dose level Control, time 3 day
[2] = 0 mg/kg, 120 h, dose level Control, time 5 day
[3] = 5 mg/kg, 72 h, dose level Low, time 3 day

With O=C(Nc1ccc(Cl)c(Cl)c1)c1cc(Cl)cc(Cl)c1O [3,3',4',5-TETRACHLOROSALICYLANILIDE] the “ABSOLUTE BASOPHIL” value [1] was 0 CELLS/uL, the “ABSOLUTE EOSINOPHIL” value [1] was 0 CELLS/uL and the “ABSOLUTE LYMPHOCYTE” value [1] was 11091.17 CELLS/uL. For the same molecule, the “ABSOLUTE MONOCYTE” value [1] was 172.17 CELLS/uL, the “ABSOLUTE SEGMENTED NEUTROPHIL” value [1] was 1186.67 CELLS/uL and the BASOPHIL [1] was 0%. The EOSINOPHIL [1] was 0%, the “ERYTHROCYTE COUNT” value [1] was 5.87 x10E6/uL and the HEMATOCRIT [1] was 36.87%. The HEMOGLOBIN [1] was 14.03 G/DL, the “LEUKOCYTE COUNT” value [1] was 12.45 x10E3/uL and the LYMPHOCYTE [1] was 88.67%. For the same molecule, the “MEAN CORPUSCULAR HEMOGLOBIN” value [1] was 23.93 pg, the “MEAN CORPUSCULAR HEMOGLOBIN CONCENTRATION” value [1] was 38.1 G/DL and the “MEAN CORPUSCULAR VOLUME” value [1] was 62.73 fL. For the same molecule, the MONOCYTE [1] was 1.5%, the NEUTROPHIL [1] was 9.83% and the “NUCLEATED RED BLOOD CELLS” value [1] was 0 /100WBC. The “PLATELET COUNT” value [1] was 1150.33 x10E3/uL, the “ALANINE AMINOTRANSFERASE” value [1] was 67.17 u/L and the ALBUMIN [1] was 4.03 G/DL. For the same molecule, the “ALKALINE PHOSPHATASE” value [1] was 462.5 u/L, the “ASPARTATE AMINOTRANSFERASE” value [1] was 88 u/L and the “BLOOD UREA NITROGEN” value [1] was 13.17 mg/dL. For the same molecule, the “CARBON DIOXIDE” value [1] was 29.33 mmol/L, the CHLORIDE [1] was 101 MEQ/L and the CHOLESTEROL [1] was 69.17 mg/dL. For the same molecule, the “CREATINE PHOSPHOKINASE” value [1] was 292.5 u/L, the CREATININE [1] was 0.17 mg/dL and the GLUCOSE [1] was 167.5 mg/dL. For the same molecule, the “LACTATE DEHYDROGENASE” value [1] was 198.5 u/L, the LIPASE [1] was 10.67 u/L and the PHOSPHORUS [1] was 11.73 mg/dL. The POTASSIUM [1] was 5.91 MEQ/L, the SODIUM [1] was 143.3 MEQ/L and the “TOTAL BILIRUBIN” value [1] was 0.18 mg/dL. The “TOTAL PROTEIN” value [1] was 5.7 G/DL, the “URIC ACID” value [1] was 1.3 mg/dL and the “ABSOLUTE BASOPHIL” value [2] was 0 CELLS/uL. For the same molecule, the “ABSOLUTE EOSINOPHIL” value [2] was 64.33 CELLS/uL, the “ABSOLUTE LYMPHOCYTE” value [2] was 12494.67 CELLS/uL and the “ABSOLUTE MONOCYTE” value [2] was 117 CELLS/uL. For the same molecule, the “ABSOLUTE SEGMENTED NEUTROPHIL” value [2] was 1340.67 CELLS/uL, the BASOPHIL [2] was 0% and the EOSINOPHIL [2] was 0.33%. The “ERYTHROCYTE COUNT” value [2] was 5.82 x10E6/uL, the HEMATOCRIT [2] was 36.97% and the HEMOGLOBIN [2] was 14.18 G/DL. For the same molecule, the “LEUKOCYTE COUNT” value [2] was 14.02 x10E3/uL, the LYMPHOCYTE [2] was 89% and the “MEAN CORPUSCULAR HEMOGLOBIN” value [2] was 24.42 pg. The “MEAN CORPUSCULAR HEMOGLOBIN CONCENTRATION” value [2] was 38.4 G/DL, the “MEAN CORPUSCULAR VOLUME” value [2] was 63.52 fL and the MONOCYTE [2] was 0.83%. The NEUTROPHIL [2] was 9.83%, the “NUCLEATED RED BLOOD CELLS” value [2] was 0 /100WBC and the “PLATELET COUNT” value [2] was 1097.83 x10E3/uL. The “ALANINE AMINOTRANSFERASE” value [2] was 58.83 u/L, the ALBUMIN [2] was 3.92 G/DL and the “ALKALINE PHOSPHATASE” value [2] was 414.17 u/L. The “ASPARTATE AMINOTRANSFERASE” value [2] was 89.17 u/L, the “BLOOD UREA NITROGEN” value [2] was 16.83 mg/dL and the “CARBON DIOXIDE” value [2] was 29.17 mmol/L. For the same molecule, the CHLORIDE [2] was 100.33 MEQ/L, the CHOLESTEROL [2] was 54.5 mg/dL and the “CREATINE PHOSPHOKINASE” value [2] was 386.17 u/L. For the same molecule, the CREATININE [2] was 0.23 mg/dL, the GLUCOSE [2] was 184.17 mg/dL and the “LACTATE DEHYDROGENASE” value [2] was 229.17 u/L. For the same molecule, the LIPASE [2] was 10.83 u/L, the PHOSPHORUS [2] was 10.88 mg/dL and the POTASSIUM [2] was 5.97 MEQ/L. For the same molecule, the SODIUM [2] was 142.2 MEQ/L, the “TOTAL BILIRUBIN” value [2] was 0.12 mg/dL and the “TOTAL PROTEIN” value [2] was 5.63 G/DL. The “URIC ACID” value [2] was 1.55 mg/dL, the “ABSOLUTE BASOPHIL” value [3] was 0 CELLS/uL and the “ABSOLUTE EOSINOPHIL” value [3] was 173.67 CELLS/uL. The “ABSOLUTE LYMPHOCYTE” value [3] was 11546 CELLS/uL, the “ABSOLUTE MONOCYTE” value [3] was 53.33 CELLS/uL and the “ABSOLUTE SEGMENTED NEUTROPHIL” value [3] was 1927 CELLS/uL. The BASOPHIL [3] was 0%, the EOSINOPHIL [3] was 1.33% and the “ERYTHROCYTE COUNT” value [3] was 5.84 x10E6/uL. For the same molecule, the HEMATOCRIT [3] was 36.37%, the HEMOGLOBIN [3] was 14.03 G/DL and the “LEUKOCYTE COUNT” value [3] was 13.7 x10E3/uL. For the same molecule, the LYMPHOCYTE [3] was 84%, the “MEAN CORPUSCULAR HEMOGLOBIN” value [3] was 24.03 pg and the “MEAN CORPUSCULAR HEMOGLOBIN CONCENTRATION” value [3] was 38.6 G/DL. The “MEAN CORPUSCULAR VOLUME” value [3] was 62.27 fL, the MONOCYTE [3] was 0.33% and the NEUTROPHIL [3] was 14.33%. For the same molecule, the “NUCLEATED RED BLOOD CELLS” value [3] was 0 /100WBC, the “PLATELET COUNT” value [3] was 1088.67 x10E3/uL and the “ALANINE AMINOTRANSFERASE” value [3] was 64 u/L. The ALBUMIN [3] was 3.97 G/DL, the “ALKALINE PHOSPHATASE” value [3] was 434.67 u/L and the “ASPARTATE AMINOTRANSFERASE” value [3] was 108.33 u/L. The “BLOOD UREA NITROGEN” value [3] was 14 mg/dL, the “CARBON DIOXIDE” value [3] was 23 mmol/L and the CHLORIDE [3] was 102.33 MEQ/L. For the same molecule, the CHOLESTEROL [3] was 66.33 mg/dL, the “CREATINE PHOSPHOKINASE” value [3] was 588 u/L and the CREATININE [3] was 0.19 mg/dL. The GLUCOSE [3] was 171.67 mg/dL, the “LACTATE DEHYDROGENASE” value [3] was 260 u/L and the LIPASE [3] was 9.67 u/L. It also gave a PHOSPHORUS [3] of 12.87 mg/dL, a POTASSIUM [3] of 6.31 MEQ/L and an SODIUM [3] of 141.93 MEQ/L. For the same molecule, the “TOTAL BILIRUBIN” value [3] was 0.13 mg/dL, the “TOTAL PROTEIN” value [3] was 5.57 G/DL and the “URIC ACID” value [3] was 1.83 mg/dL.
